Measurements: the CheMixHub viscosity set

Experiment: xn = mol fraction of the nth substance listed
Settings: 101 kPa

COCCOCCOCCOCCOC + O
viscosity [mPa·s]
Settings	298 K	303.15 K	308.15 K	313.15 K	318.15 K	323.15 K
x1 = 0.00562	–	1.177	1.049	0.937	0.839	0.767
x1 = 0.0075	1.323	–	–	–	–	–
x1 = 0.0142	1.533	–	–	–	–	–
x1 = 0.02904	–	2.119	1.844	1.618	1.431	1.275
x1 = 0.0297	2.433	–	–	–	–	–
x1 = 0.0419	3.198	–	–	–	–	–
x1 = 0.04576	–	3.14	2.677	2.309	1.992	1.766
x1 = 0.0593	4.289	–	–	–	–	–
x1 = 0.07654	–	4.235	3.566	3.043	2.621	2.273
x1 = 0.0784	5.24	–	–	–	–	–
x1 = 0.1006	–	4.915	4.126	3.487	2.994	2.593
x1 = 0.1139	6.253	–	–	–	–	–
x1 = 0.1272	–	5.245	4.392	3.729	3.181	2.758
x1 = 0.1398	6.469	–	–	–	–	–
x1 = 0.1512	–	5.331	4.475	3.802	3.273	2.838
x1 = 0.1543	6.411	–	–	–	–	–
x1 = 0.2009	–	5.151	4.371	3.744	3.243	2.839
x1 = 0.2493	–	4.865	4.154	3.6	3.128	2.76
x1 = 0.2986	–	4.539	3.909	3.397	2.982	–
x1 = 0.3508	–	4.269	3.695	3.228	2.845	2.528
x1 = 0.4016	–	4.026	3.508	3.089	2.735	2.433
x1 = 0.5033	–	3.66	3.22	2.853	2.543	2.281
x1 = 0.5975	–	3.428	3.025	2.698	2.42	2.183
x1 = 0.7029	–	3.236	2.883	2.577	2.323	–
x1 = 0.8018	–	3.113	2.78	2.497	2.257	2.047
x1 = 0.8532	–	3.066	2.744	2.467	2.231	2.029
x1 = 0.9025	–	3.019	2.704	–	2.203	–
x1 = 0.9447	–	2.982	2.679	2.414	2.182	1.99
